Data set [1] in a line: GSH reactivity assessed as half life to adduct formation at 0.1 uM by LC-MS/MS analysis. Format: physicochemical.
Data set [2] relates to MV4-11. The experiment in a line: Antiproliferative activity against human MV4-11 cells assessed as reduction in cell viability incubated for 7 days by CellTiter-Glo reagent based luminescence analysis. In kind it is functional. The conditions noted are these: MV4-11, 168 h. Background: Cellular ATP, detected with luciferase, serves as a proxy for viable cell number.
Data set [3] relates to KARPAS-299. The experiment in a line: Antiproliferative activity against human KARPAS-299 cells assessed as reduction in cell viability incubated for 7 days by CellTiter-Glo reagent based luminescence analysis. In kind it is functional. The conditions noted are these: KARPAS-299, 168 h.
In data set [4] the target is Cyclin-dependent kinase 12/13 (Homo sapiens) (UniProt Q14004+Q9NYV4). The experiment in a line: Inhibition of CDK12/13 in human SUM149PT cells assessed as reduction in ATM gene expression at 500 nM incubated for 8 to 24 hrs by qPCR analysis. Format: cell-based. The conditions noted are these: time lower 8.0 hrs, time upper […]. (In general: In qPCR the cycle at which signal appears reflects the starting amount.)

In data set [5] the target is CDK3/Cyclin E (Homo sapiens) (UniProt P24864+Q00526). The data set is described as follows: Inhibition of human recombinant N-terminal GST-tagged CDK3/N-terminal 6X His-tagged Cyclin E1 expressed in HEP Sf9 cells using ATP as substrate at 2 uM measured after 60 mins by ADP-Glo reagent based luminescence analysis.
Chain of CDK3/Cyclin E (Homo sapiens) (P24864 whole entry, looked up): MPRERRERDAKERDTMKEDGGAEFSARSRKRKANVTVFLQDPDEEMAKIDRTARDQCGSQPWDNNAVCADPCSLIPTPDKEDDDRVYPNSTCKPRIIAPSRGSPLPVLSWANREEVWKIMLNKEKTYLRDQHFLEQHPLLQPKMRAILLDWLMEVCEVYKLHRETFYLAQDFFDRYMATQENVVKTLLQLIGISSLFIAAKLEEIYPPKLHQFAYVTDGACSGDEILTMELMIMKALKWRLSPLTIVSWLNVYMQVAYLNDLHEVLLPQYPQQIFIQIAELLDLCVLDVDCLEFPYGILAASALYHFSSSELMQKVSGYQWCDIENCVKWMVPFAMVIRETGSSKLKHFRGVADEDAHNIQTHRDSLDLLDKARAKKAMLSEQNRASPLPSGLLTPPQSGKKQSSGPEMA
Chain of CDK3/Cyclin E (Homo sapiens) (Q00526 whole entry, looked up): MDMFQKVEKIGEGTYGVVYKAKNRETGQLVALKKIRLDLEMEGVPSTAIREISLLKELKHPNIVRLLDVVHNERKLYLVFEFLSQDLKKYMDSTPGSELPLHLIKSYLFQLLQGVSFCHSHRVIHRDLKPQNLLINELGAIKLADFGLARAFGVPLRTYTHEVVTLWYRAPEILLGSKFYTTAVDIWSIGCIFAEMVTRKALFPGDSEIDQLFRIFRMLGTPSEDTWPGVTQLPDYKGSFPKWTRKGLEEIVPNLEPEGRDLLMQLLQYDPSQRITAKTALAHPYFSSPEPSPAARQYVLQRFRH
The target in data set [6] is Cyclin-dependent kinase 13/Cyclin-K (Homo sapiens, UniProt Q14004). The experiment in a line: Inhibition of human recombinant N-terminal GST-tagged CDK13/N-terminal FLAG and C-terminal His-tagged Cyclin K expressed in HEP Sf9 cells using ATP as substrate measured after 60 mins by ADP-Glo reagent based luminescence assay. For orientation: ADP-Glo turns the ADP formed in a reaction into a luminescent signal.
Chain of Cyclin-dependent kinase 13/Cyclin-K (Q14004 whole entry): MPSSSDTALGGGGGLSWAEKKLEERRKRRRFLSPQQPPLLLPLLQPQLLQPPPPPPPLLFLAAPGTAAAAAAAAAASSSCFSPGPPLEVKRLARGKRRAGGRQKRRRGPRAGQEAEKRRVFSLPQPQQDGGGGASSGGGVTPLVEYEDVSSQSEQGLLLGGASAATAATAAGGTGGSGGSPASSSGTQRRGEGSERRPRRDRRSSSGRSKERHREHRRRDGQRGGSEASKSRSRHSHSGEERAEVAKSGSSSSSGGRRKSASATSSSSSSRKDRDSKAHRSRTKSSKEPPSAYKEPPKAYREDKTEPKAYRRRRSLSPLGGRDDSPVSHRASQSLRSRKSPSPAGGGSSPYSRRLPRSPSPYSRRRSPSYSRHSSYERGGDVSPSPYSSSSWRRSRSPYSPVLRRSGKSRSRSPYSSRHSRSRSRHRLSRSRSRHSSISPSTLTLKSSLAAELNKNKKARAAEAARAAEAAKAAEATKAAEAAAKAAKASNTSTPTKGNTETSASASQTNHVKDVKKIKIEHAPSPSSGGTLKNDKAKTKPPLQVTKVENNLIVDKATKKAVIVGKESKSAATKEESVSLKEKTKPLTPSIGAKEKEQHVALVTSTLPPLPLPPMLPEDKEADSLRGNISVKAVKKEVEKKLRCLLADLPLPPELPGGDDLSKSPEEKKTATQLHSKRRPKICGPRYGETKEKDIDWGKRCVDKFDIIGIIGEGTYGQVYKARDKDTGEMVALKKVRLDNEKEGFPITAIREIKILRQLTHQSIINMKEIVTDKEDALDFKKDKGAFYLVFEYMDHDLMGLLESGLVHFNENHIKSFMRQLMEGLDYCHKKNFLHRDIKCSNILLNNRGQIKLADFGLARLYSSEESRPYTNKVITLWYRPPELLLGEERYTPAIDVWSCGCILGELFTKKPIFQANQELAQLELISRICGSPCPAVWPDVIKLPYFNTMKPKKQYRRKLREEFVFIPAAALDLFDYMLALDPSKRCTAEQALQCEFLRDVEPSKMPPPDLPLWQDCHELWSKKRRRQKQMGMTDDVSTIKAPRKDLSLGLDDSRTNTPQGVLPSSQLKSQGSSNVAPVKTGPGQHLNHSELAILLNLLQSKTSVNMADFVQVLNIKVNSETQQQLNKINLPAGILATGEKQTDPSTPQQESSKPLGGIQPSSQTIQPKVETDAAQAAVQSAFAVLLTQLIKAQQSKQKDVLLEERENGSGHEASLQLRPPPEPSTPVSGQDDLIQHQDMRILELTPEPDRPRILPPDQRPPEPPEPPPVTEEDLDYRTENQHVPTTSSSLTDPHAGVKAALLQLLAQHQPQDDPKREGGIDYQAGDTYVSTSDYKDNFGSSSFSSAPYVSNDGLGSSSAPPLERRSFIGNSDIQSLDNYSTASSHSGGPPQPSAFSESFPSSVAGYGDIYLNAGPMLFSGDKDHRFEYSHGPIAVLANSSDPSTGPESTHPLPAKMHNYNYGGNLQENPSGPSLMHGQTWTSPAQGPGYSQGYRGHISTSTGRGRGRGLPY
Chain of Cyclin-dependent kinase 13/Cyclin-K (O75909 whole entry, further chain): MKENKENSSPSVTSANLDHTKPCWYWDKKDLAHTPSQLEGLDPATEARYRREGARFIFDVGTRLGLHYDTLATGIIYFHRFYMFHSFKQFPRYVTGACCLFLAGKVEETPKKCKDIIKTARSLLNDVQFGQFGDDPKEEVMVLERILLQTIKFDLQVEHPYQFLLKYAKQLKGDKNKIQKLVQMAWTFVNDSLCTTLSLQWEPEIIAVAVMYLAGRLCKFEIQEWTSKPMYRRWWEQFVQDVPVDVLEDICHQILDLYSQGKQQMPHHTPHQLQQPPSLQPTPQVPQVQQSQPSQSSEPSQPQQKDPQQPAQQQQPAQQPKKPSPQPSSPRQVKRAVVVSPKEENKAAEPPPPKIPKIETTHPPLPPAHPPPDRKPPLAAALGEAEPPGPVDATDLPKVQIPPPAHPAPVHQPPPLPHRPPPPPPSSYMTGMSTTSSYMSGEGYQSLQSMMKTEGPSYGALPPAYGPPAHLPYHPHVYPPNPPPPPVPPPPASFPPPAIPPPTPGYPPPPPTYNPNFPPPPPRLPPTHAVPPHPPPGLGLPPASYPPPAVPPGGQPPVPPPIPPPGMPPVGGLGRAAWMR

Data set [7] in a line: Toxicity against Balb/c mouse xenografted with human SUM149PT cells assessed as body weight at 30 to 60 mg/kg, po administered once daily via gavage and measured every 3 days for 3 weeks. In kind it is organism-based. The conditions noted are these: in vivo, 504 h, dose 30-60 mg/kg.
A short description of data set [8]: Cmax in Balb/c mouse xenografted with human MV4-11 cells at 15 mg/kg, po administered once daily via gavage. In kind it is ADME, organism-based. The conditions noted are these: in vivo.
The subject of data set [9] is Mus musculus. The data set is described as follows: In vivo inhibition of CDK12/13 in Balb/c mouse xenografted with human SUM149PT cells assessed as reduction in ATM gene expression at 15 to 30 mg/kg, po administered once daily via gavage and measured at 4 hrs post-last drug dosage by qPCR analysis. Format: functional, organism-based. The conditions noted are these: dose 15-30 mg/kg.

A short description of data set [10]: Half life in Sprague-Dawley rat at 1 mg/kg, iv measured for 24 hrs by LC-MS/MS analysis. In kind it is ADME, organism-based. The following applies: in vivo.
Data set [11] is described as follows: AUC (0 to infinity) in Sprague-Dawley rat at 1 mg/kg, iv by LC-MS/MS analysis. Format: ADME, organism-based. The conditions noted are these: in vivo.
Data set [12] is described as follows: Clearance in Sprague-Dawley rat at 1 mg/kg, iv measured for 24 hrs by LC-MS/MS analysis. The conditions noted are these: in vivo. In kind it is ADME, organism-based.
The nature of data set [13]: Cmax in male Sprague-Dawley rat at 10 mg/kg, po administered via gavage and measured on day 1. Format: ADME, organism-based. The conditions noted are these: in vivo, time 1 day.
Data set [14] is described as follows: Toxicity against male Sprague-Dawley rat assessed as body weight loss at 40 mg/kg, po administered once daily via gavage for 28 days and measured twice a week. In kind it is organism-based. The conditions noted are these: in vivo, 672 h, time 28 day.

pIC50: −log10 of the molar value. Active and inactive are the calls of the source. The rule behind the calls is not given here.

By pIC50 is commonly meant −log10 of the IC50, conventionally taken in molar units. As a reminder, the inhibition is how much of the control response was suppressed. As usually defined, the Cmax is the highest concentration seen after dosing. The half-life is how long it takes for the measured level to halve. A high value points to slow decline. What is called AUC(0-inf) is total exposure, with the tail of the curve extrapolated. A higher AUC(0-inf) goes with high exposure. Broadly, the clearance is a measure of how efficiently the substance is removed, as volume per time. Higher therefore signals efficient removal.

For the molecule `C=CC(=O)N1CCc2c(ncnc2N2CC[C@@H](Nc3ncc(Cl)c(OC)n3)C2)C1`, the t1/2 in data set [1] is 88.5 min. For the same molecule, the pIC50 in data set [2] was 7.08; in data set [3], 6.88; in data set [6] it was 6.95. Moreover, the inhibition result in data set [4] and in data set [9] was “Active” each time. Also, in [5], the inhibition is 46%. Besides, the Activity entry is on record as “Non-toxic” in [7] and “Toxic” in data set [14]. Further, the figures for the Cmax in data set [8] and in [13] were 647 ng/mL and 460 ng/mL, respectively. This molecule also gave a half-life in data set [10] of 13.8 min. This molecule gave an AUC(0-inf) in data set [11] of 270 ng·h/mL. Moreover, the clearance in data set [12] came to 62.4 mL/min/kg.

The record behind these values is ChEMBL document CHEMBL6153137, “Design, Synthesis, and Biological Evaluation of Novel Orally Available Covalent CDK12/13 Dual Inhibitors for the Treatment of Tumors” (J Med Chem, 2025).
